{"source": "patent US5661130A", "about": "“Absorption enhancers for drug administration” (The UAB Research Foundation, priority 1993, dated 1997)", "key": {"[1]": {"test_system": "rectal mucosa of rats", "conditions": "Murakami et al.; cited from earlier work"}, "[2]": {"test_system": "normal rats with blood glucose elevated by xylazine/ketamine anesthesia", "experiment": "Hypoglycemic effect of insulin eye drops with absorption enhancer in anesthetized rats", "type": "in vivo, rat", "protocol": "This mimics the hyperglycemic state seen in diabetic animals and humans. The elevated levels of D-glucose that occur in response to anesthesia provide an optimal system in which to measure any systemic hypoglycemic action of insulin-containing eye drops.\nAdult male Sprague-Dawley rats (250-350g) were fed ad libitum, and experiments were conducted between 10:00 a.m. and 3:00 p.m. Rats were anesthetized with a mixture of xylazine (7.5 mg/kg) and ketamine (50 mg/kg) given intraperitoneally (IP) and allowed to stabilize for 50-90 min before the administration of eye drops. […] Blood D-glucose values were measured by collecting a drop of blood from the tail vein at 5-10 min intervals throughout the experiment and applying the blood to glucometer strips (Chemstrip bG) according to directions provided with the instrument (Accu-Chek II, Boehringer Mannheim Diagnostics; Indianapolis, Ind.).\n(§1) Eye drops were instilled at time 0 using a plastic disposable pipette tip with the eyes held open, and the rat was kept in a horizontal position on a warming pad (37° C.) throughout the protocol. […] Octyl β-D-maltoside, decyl-β-D-maltoside, dodecyl-β-D-maltoside, tridecyl-β-D-maltoside and tetradecyl-β-D-maltoside were obtained from Anatrace, Inc. (Maumee, Ohio)."}, "[3]": {"test_system": "rats", "experiment": "Hyperglycemic effect of glucagon eye drops with surfactant", "type": "in vivo, rat", "conditions": "for blood D-glucose values after glucagon eye drops (in words): surfactant plus glucagon, rats previously treated with eye drops of same surfactant plus insulin; for Blood Glucose Concentration: glucagon eye drops with 0.5% surfactant agent added after 120 min (after insulin eye drops)", "protocol": "Glucagon absorption from the eye was measured in rats given eye drops containing various surfactants plus glucagon (30 μg) (Eli Lilly, Indianapolis, Ind.) by monitoring an elevation in blood D-glucose levels. […] Once again, paired animals that received eye drops containing the surfactant agents only, or glucagon only, could be compared to animals receiving eye drops with surfactant agents and glucagon. […] Additionally, the use of glucagon eyedrops to treat a hypoglycemic crisis is now possible provided that an appropriate surfactant agent is included in the eye drop formulation."}, "[4]": {"test_system": "monocytes or endothelial cells", "conditions": "DiCorleto et al.; cited from earlier work"}, "[5]": {"test_system": "intact mouse fibrosarcoma cells", "conditions": "LeGrue et al.; cited from earlier work"}, "[6]": {"test_system": "normal rats with blood glucose elevated by xylazine/ketamine anesthesia", "experiment": "Hypoglycemic effect of insulin nose drop with absorption enhancer", "type": "in vivo, rat", "conditions": "nose drop 0.2% insulin with 0.5% tetradecylmaltoside, after eye drops", "protocol": "Adult male Sprague-Dawley rats (250-350g) were fed ad libitum, and experiments were conducted between 10:00 a.m. and 3:00 p.m. Rats were anesthetized with a mixture of xylazine (7.5 mg/kg) and ketamine (50 mg/kg) given intraperitoneally (IP) and allowed to stabilize for 50-90 min before the administration of eye drops. Anesthesia of a normal rat with xylazine/ketamine produces an elevation in blood glucose values which provides an optimal state to determine the systemic hypoglycemic action of insulin-containing eye drops. Blood D-glucose values were measured by collecting a drop of blood from the tail vein at 5-10 min intervals throughout the experiment and applying the blood to glucometer strips (Chemstrip bG) according to directions provided with the instrument (Accu-Chek II, Boehringer Mannheim Diagnostics; Indianapolis, Ind.). Blood D-glucose values ranged from 200 to 400 mg/dl in anesthetized nondiabetic rats.\nas §1, with “Ohio). […]” for “Ohio).”"}, "[7]": {"conditions": "0.25% enhancer with 0.2% regular porcine insulin"}, "[8]": {"conditions": "0.5% enhancer with 0.2% regular porcine insulin"}, "[9]": {"conditions": "enhancer concentration not singled out (0.125-0.5%), with 0.2% regular porcine insulin"}}}
{"molecule": "CCCCCCCCCCCCO[C@@H]1O[C@H](CO)[C@@H](O[C@H]2O[C@H](CO)[C@@H](O)[C@H](O)[C@H]2O)[C@H](O)[C@H]1O", "note": "[Dodecyl Maltoside, dodecyl-β-D-maltoside]", "values": [{"measurement": "histological change to the rectal tissue", "setting": "[1]", "result": "without producing any apparent histological change"}, {"measurement": "promoting absorption of dextrans and carboxyfluoroscein across the rectal mucosa", "setting": "[1]", "result": "effective"}, {"measurement": "Effect as absorption enhancer on blood glucose, insulin eye drops (in words)", "setting": "[2]; 0.125% enhancer with 0.2% regular porcine insulin", "result": "ineffective"}, {"measurement": "Effect as absorption enhancer on blood glucose, insulin eye drops (in words)", "setting": "[2]; [7]", "result": "smaller and more transient effect"}, {"measurement": "Effect as absorption enhancer on blood glucose, insulin eye drops (in words)", "setting": "[2]; 0.375% enhancer with 0.2% regular porcine insulin", "result": "equally effective"}, {"measurement": "Effect as absorption enhancer on blood glucose, insulin eye drops (in words)", "setting": "[2]; 0.5% enhancer with 0.2% regular porcine insulin, listed as dodecyl-β-D-maltoside", "result": "prompt and sustained fall in blood glucose levels"}, {"measurement": "Effect as absorption enhancer on blood glucose, insulin eye drops (in words)", "setting": "[2]; 0.5% enhancer with 0.2% regular porcine insulin, listed as dodecylmaltoside", "result": "equally effective"}]}
{"molecule": "CCCCCCOC1O[C@H](CO)[C@@H](O)[C@H](O)[C@H]1O", "note": "(stereo partly drawn) [hexylglucoside, Hexylglucopyranoside]", "values": [{"measurement": "Effect as absorption enhancer on blood glucose, insulin eye drops (in words)", "setting": "[2]; [8]", "result": "ineffective"}]}
{"molecule": "dodecylsucrose [Dodecyl Sucrose]", "values": [{"measurement": "blood D-glucose values after glucagon eye drops (in words)", "setting": "[3]", "result": "significantly increased"}, {"measurement": "blood glucose levels", "setting": "[2]; insulin eye drops with 0.125% dodecylsucrose, time 0 min", "result": 335, "unit": "mg/dL"}, {"measurement": "blood glucose levels", "setting": "[2]; insulin eye drops with 0.125% dodecylsucrose, time 120 min", "result": 150, "unit": "mg/dL"}]}
{"molecule": "CCCCCCCCCCCCCOC1OC(CO)C(OC2OC(CO)C(O)C(O)C2O)C(O)C1O", "note": "[Tridecyl Maltoside, tridecyl-β-D-maltoside]", "values": [{"measurement": "Blood Glucose Concentration", "setting": "[3]; time 130 min", "result": 82, "unit": "mg/dL"}, {"measurement": "Blood Glucose Concentration", "setting": "[3]; time 140 min", "result": 121, "unit": "mg/dL"}, {"measurement": "Blood Glucose Concentration", "setting": "[3]; time 150 min", "result": 148, "unit": "mg/dL"}, {"measurement": "Blood Glucose Concentration", "setting": "[3]; time 160 min", "result": 173, "unit": "mg/dL"}, {"measurement": "Blood Glucose Concentration", "setting": "[3]; time 170 min", "result": 162, "unit": "mg/dL"}, {"measurement": "Blood Glucose Concentration", "setting": "[3]; time 180 min", "result": 162, "unit": "mg/dL"}, {"measurement": "Blood Glucose Concentration", "setting": "[3]; time 190 min", "result": 156, "unit": "mg/dL"}, {"measurement": "blood D-glucose values after glucagon eye drops (in words)", "setting": "[3]", "result": "significantly increased"}, {"measurement": "Effect as absorption enhancer on blood glucose, insulin eye drops (in words)", "setting": "[2]; [7]", "result": "sustained for the two hour time course of the experiment"}, {"measurement": "Effect as absorption enhancer on blood glucose, insulin eye drops (in words)", "setting": "[2]; [8]", "result": "effective"}, {"measurement": "Blood Glucose Concentration", "setting": "[2]; 0.5% surfactant agent, time -10 min, before insulin eye drops", "result": 307, "unit": "mg/dL"}, {"measurement": "Blood Glucose Concentration", "setting": "[2]; 0.5% surfactant agent, time -20 min, before insulin eye drops", "result": 255, "unit": "mg/dL"}, {"measurement": "Effect as absorption enhancer on blood glucose, insulin eye drops (in words)", "setting": "[2]; [9]", "result": "dose-dependent effect"}, {"measurement": "Blood Glucose Concentration", "setting": "[2]; insulin eye drops with 0.5% surfactant agent, time 0 min", "result": 323, "unit": "mg/dL"}, {"measurement": "Blood Glucose Concentration", "setting": "[2]; insulin eye drops with 0.5% surfactant agent, time 10 min", "result": 309, "unit": "mg/dL"}, {"measurement": "Blood Glucose Concentration", "setting": "[2]; insulin eye drops with 0.5% surfactant agent, time 20 min", "result": 217, "unit": "mg/dL"}, {"measurement": "Blood Glucose Concentration", "setting": "[2]; insulin eye drops with 0.5% surfactant agent, time 30 min", "result": 131, "unit": "mg/dL"}, {"measurement": "Blood Glucose Concentration", "setting": "[2]; insulin eye drops with 0.5% surfactant agent, time 40 min", "result": 100, "unit": "mg/dL"}, {"measurement": "Blood Glucose Concentration", "setting": "[2]; insulin eye drops with 0.5% surfactant agent, time 50 min", "result": 87, "unit": "mg/dL"}, {"measurement": "Blood Glucose Concentration", "setting": "[2]; insulin eye drops with 0.5% surfactant agent, time 60 min", "result": 107, "unit": "mg/dL"}, {"measurement": "Blood Glucose Concentration", "setting": "[2]; insulin eye drops with 0.5% surfactant agent, time 70 min", "result": 115, "unit": "mg/dL"}, {"measurement": "Blood Glucose Concentration", "setting": "[2]; insulin eye drops with 0.5% surfactant agent, time 80 min", "result": 79, "unit": "mg/dL"}, {"measurement": "Blood Glucose Concentration", "setting": "[2]; insulin eye drops with 0.5% surfactant agent, time 90 min", "result": 85, "unit": "mg/dL"}, {"measurement": "Blood Glucose Concentration", "setting": "[2]; insulin eye drops with 0.5% surfactant agent, time 100 min", "result": 76, "unit": "mg/dL"}, {"measurement": "Blood Glucose Concentration", "setting": "[2]; insulin eye drops with 0.5% surfactant agent, time 110 min", "result": 74, "unit": "mg/dL"}, {"measurement": "Blood Glucose Concentration", "setting": "[2]; insulin eye drops with 0.5% surfactant agent, time 120 min", "result": 75, "unit": "mg/dL"}]}
{"molecule": "CCCCCCCCCOC1O[C@H](CO)[C@@H](O)[C@H](O)[C@H]1O", "note": "(stereo partly drawn) [nonylglucoside, nonylglucopyranoside]", "values": [{"measurement": "Effect as absorption enhancer on blood glucose, insulin eye drops (in words)", "setting": "[2]; [8]", "result": "effectively stimulated insulin absorption"}, {"measurement": "blood glucose levels", "setting": "[2]; insulin eye drops with 0.5% nonylglucoside, initial value (from)", "result": 297, "unit": "mg/dL"}, {"measurement": "blood glucose levels", "setting": "[2]; insulin eye drops with 0.5% nonylglucoside, reduced value (to)", "result": 150, "unit": "mg/dL"}]}
{"molecule": "CCCCCCCCO[C@@H]1O[C@H](CO)[C@@H](O)[C@H](O)[C@H]1O", "note": "[Octylglucoside, octyl β-D-glucoside]", "values": [{"measurement": "viability or morphology of monocytes or endothelial cells", "setting": "[4]", "result": "no effect"}, {"measurement": "cytolysis of intact mouse fibrosarcoma cells", "setting": "[5]", "result": "non-cytolytic"}]}
{"molecule": "CCCCCCCCCCCCCCO[C@@H]1O[C@H](CO)[C@@H](O[C@H]2O[C@H](CO)[C@@H](O)[C@H](O)[C@H]2O)[C@H](O)[C@H]1O", "note": "[Tetradecyl Maltoside, tetradecyl-β-D-maltoside]", "values": [{"measurement": "Effect as absorption enhancer on blood glucose, insulin eye drops (in words)", "setting": "[2]; 0.125% enhancer with 0.2% regular porcine insulin, listed as tetradecyl maltoside", "result": "effective"}, {"measurement": "Effect as absorption enhancer on blood glucose, insulin eye drops (in words)", "setting": "[2]; 0.125% enhancer with 0.2% regular porcine insulin, listed as tetradecylmaltoside", "result": "prompt and prominent drop in blood glucose levels"}, {"measurement": "Effect as absorption enhancer on blood glucose, insulin eye drops (in words)", "setting": "[2]; [8]", "result": "effective"}, {"measurement": "blood glucose levels after nose drop (in words)", "setting": "[6]", "result": "further decreased"}]}
{"molecule": "CCCCCCCOC1O[C@H](CO)[C@@H](O)[C@H](O)[C@H]1O", "note": "(stereo partly drawn) [heptylglucoside, heptylglucopyranoside]", "values": [{"measurement": "Effect as absorption enhancer on blood glucose, insulin eye drops (in words)", "setting": "[2]; [8]", "result": "ineffective"}]}
{"molecule": "decylsucrose", "values": [{"measurement": "Effect as absorption enhancer on blood glucose, insulin eye drops (in words)", "setting": "[2]; [8]", "result": "effective in reducing blood glucose levels"}, {"measurement": "blood glucose levels", "setting": "[2]; insulin eye drops with 0.5% decylsucrose, time 0 min", "result": 313, "unit": "mg/dL"}, {"measurement": "blood glucose levels", "setting": "[2]; insulin eye drops with 0.5% decylsucrose, time 120 min", "result": 164, "unit": "mg/dL"}]}
{"molecule": "CCCCCCCCCCO[C@@H]1O[C@H](CO)[C@@H](O[C@H]2O[C@H](CO)[C@@H](O)[C@H](O)[C@H]2O)[C@H](O)[C@H]1O", "note": "[Decyl Maltoside, decyl-β-D-maltoside]", "values": [{"measurement": "blood D-glucose values after glucagon eye drops (in words)", "setting": "[3]", "result": "significantly increased"}, {"measurement": "Effect as absorption enhancer on blood glucose, insulin eye drops (in words)", "setting": "[2]; [8]", "result": "prompt and sustained fall in blood glucose levels"}, {"measurement": "Effect as absorption enhancer on blood glucose, insulin eye drops (in words)", "setting": "[2]; [9]", "result": "less"}]}
{"molecule": "CCCCCCCCO[C@@H]1O[C@H](CO)[C@@H](O[C@H]2O[C@H](CO)[C@@H](O)[C@H](O)[C@H]2O)[C@H](O)[C@H]1O", "note": "[octylmaltoside, Octyl β-D-maltoside]", "values": [{"measurement": "Effect as absorption enhancer on blood glucose, insulin eye drops (in words)", "setting": "[2]; [9]", "result": "no"}]}
